Measured values reported in patent US7838020B2, “Cosmetic or dermatological composition comprising an association between a compound of the N-acylaminoamide family and at least one matrix metalloproteinase inhibitor” (L'Oreal, priority 2001, dated 2010).

Legend:
[1] = molecular target: T1, human leukocyte elastase (ELH) (Homo sapiens, UniProt P08246); assay: ex vivo activity on surviving human skin fragments treated with ELH, 10 days culture (Example 5); format: cell-based; conditions: 0.5 μg ELH per ml; 5 μl of 0.2% compound in ethanol every two days; 10 days at 37° C.; control 7.4%, ELH alone 5.1%
T1 sequence (P08246 30-267): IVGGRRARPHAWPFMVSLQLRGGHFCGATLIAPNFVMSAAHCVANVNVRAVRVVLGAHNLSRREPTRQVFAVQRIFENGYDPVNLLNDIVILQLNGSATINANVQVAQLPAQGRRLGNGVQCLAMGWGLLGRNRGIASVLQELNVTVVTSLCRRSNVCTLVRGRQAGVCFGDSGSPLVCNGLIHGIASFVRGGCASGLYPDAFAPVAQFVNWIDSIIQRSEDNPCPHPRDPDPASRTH
Procedure: (§1) The ex vivo activity of example 2 compound has been evaluated on surviving human skins treated by a human leukocyte elastase (ELH).
The test is performed the following way:
Fragments of normal human skin from three different donors are deposited in inserts positioned in culture wells. Culture medium added with antibiotics is added in the bottom of the wells. A pass is performed through slow diffusion between the two compartments via a porous membrane (pore size: 12 μm).
The culture medium is renewed every three days.
On the skin fragments, optionally 0.5 μg ELH per ml culture medium are added.
5 μl of the compound to be tested are also added every two days, previously put in solution at 0.2% by weight in ethanol.
The skins are kept surviving for 10 days at 37° C.
(§2) The elastic fibres are coloured in blue using catechin (+) and quantified morphometrically using a computer assisted image analysis. The average derma surface percentage occupied by elastic fibres is evaluated this way.

[2] = molecular target: T1, human leukocyte elastase (ELH); assay: in vitro anti-elastasic activity, Me-OSAAPV-p-NA substrate, spectrophotometry; format: biochemical; conditions: even in a small amount (0.01% to 0.2%)
Procedure: The anti-elastasic activity of compounds according to the invention is determined in vitro compared to the human leukocyte elastase (ELH).
The test is performed in the following way:
A Me-OSAAPV-p-NA (méthyl-O-succinate alanine alanine proline valine-p-nitroaniline) substrate, onto which ELH (40 milli-units per ml) and 0.1% of the compound to be tested are applied, is left for incubating at 37° C. for 60 minutes.
Thereafter, the % inhibition of the control elastase activity is determined by spectrophotometry.

[3] = molecular target: T1, human leukocyte elastase (ELH); assay: ex vivo activity on fresh human skin cuts treated with ELH for 2 hours (Example 4); format: cell-based; conditions: 20° C.
Procedure: as §1
The test is performed the following way.
Fresh human skin cuts from two different donors are treated for 2 hours, at 20° C., by 20 μl of a buffer solution (pH 7.4) optionally comprising 10 μg/ml ELH and optionally 0.1% of the compound to be tested, optionally previously put in solution in ethanol.
as §2

inhibition of the elastase activity (in words) [2]: strong inhibition
% Surface occupied by elastic fibres ([3]; Skin 1, 10 μg/ml ELH + 0.1% compound, control 12.7%, ELH alone 4.85%): 13.95%
% Surface occupied by elastic fibres ([3]; Skin 2, 10 μg/ml ELH + 0.1% compound, control 15.25%, ELH alone 6.85%): 11.85%
Compound: CC(=O)N(c1cccc(C(F)(F)F)c1)C(C(=O)NCC(=O)O)C(C)C (stereo not shown) [Compound A, {2-[acetyl-(3-trifluoromethyl-phenyl)-amino]-3-méthyl-butyryl-amino}acetic acid]
% Surface occupied by elastic fibres [1]: 7.1%
